Measured values from patent US6737383B1, “Herbicidal oxadiazolidines” (priority 1999, dated 2004).

How the values were obtained:
wild oat = assay: Test B pre/postemergence wild oat; type: in vivo, Avena fatua
In short: (§1)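 Test chemicals in a non-phytotoxic solvent mixture with surfactant were sprayed preemergence onto planted seeds and postemergence onto plants 2 to 18 cm tall (1- to 4-leaf stage). After twelve to sixteen days in a greenhouse, injury was visually rated against untreated controls from 0 (no effect) to 10 (complete control).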

blackgrass = assay: Test B pre/postemergence blackgrass; type: in vivo, Alopecurus myosuroides
In short: as §1

corn = assay: Test B pre/postemergence corn; type: in vivo, Zea mays
In short: as §1

soybean = assay: Test B pre/postemergence soybean; type: in vivo, Glycine max
In short: as §1

sugar beet = assay: Test B pre/postemergence sugar beet; type: in vivo, Beta vulgaris
In short: as §1

rape = assay: Test B pre/postemergence rape; type: in vivo, Brassica napus
In short: as §1

crabgrass = assay: Test B pre/postemergence crabgrass; type: in vivo, Digitaria sanguinalis
In short: as §1

surinam grass = assay: Test B pre/postemergence surinam grass; type: in vivo, Brachiaria decumbens
In short: as §1

cocklebur = assay: Test B pre/postemergence cocklebur; type: in vivo, Xanthium strumarium
In short: as §1

purple nutsedge = assay: Test B pre/postemergence purple nutsedge; type: in vivo, Cyperus rotundus
In short: as §1

bedstraw = assay: Test B pre/postemergence bedstraw; type: in vivo, Galium aparine
In short: as §1

velvetleaf = assay: Test B pre/postemergence velvetleaf; type: in vivo, Abutilon theophrasti
In short: as §1

wheat = assay: Test B pre/postemergence wheat; type: in vivo, Triticum aestivum
In short: as §1

[1] = Preemergence, Rate 62 g/ha, scale of 0 to 10 where 0 is no effect and 10 is complete control
[2] = Preemergence, Rate 125 g/ha, 0 is no effect, 10 is complete control
[3] = Preemergence, Rate 250 g/ha, scale 0 to 10, 0 is no effect, 10 is complete control
[4] = Preemergence, Rate 500 g/ha, scale 0 to 10 (0 no effect, 10 complete control)
[5] = Rate 250 g/ha, Postemergence, scale 0 to 10, 0 is no effect, 10 is complete control
[6] = Rate 500 g/ha, Postemergence, scale 0 to 10
[7] = Postemergence, Rate 125 g/ha, scale of 0 to 10 where 0 is no effect and 10 is complete control
[8] = Rate 62 g/ha, Postemergence, scale of 0 to 10 where 0 is no effect and 10 is complete control

CC1CCCCC1n1c(=O)on(C(=O)N(c2ccc(F)cc2F)C(C)C)c1=O (stereo not shown) [Compound 172]
9: Plant response rating, Crabgrass (crabgrass; [5]) | Crabgrass plant response rating (crabgrass; [6])
3: Wild oats plant response rating (wild oat; [3]) | Blackgrass plant response rating (blackgrass; [3]) | Blackgrass plant response rating (blackgrass; [4]) | Soybean plant response rating (soybean; [7]) | Plant response rating, Soybean (soybean; [5]) | Crabgrass plant response rating (crabgrass; [7]) | Bedstraw plant response rating (bedstraw; [3]) | Velvetleaf plant response rating (velvetleaf; [4])
7: Crabgrass plant response rating (crabgrass; [1])
8: Crabgrass plant response rating (0 to 10 scale) (crabgrass; [2]) | B. signalgrass plant response rating (surinam grass; [4]) | Plant response rating, Bedstraw (bedstraw; [5])
2: Soybean plant response rating (soybean; [8]) | Sugarbeets plant response rating (0 to 10 scale) (sugar beet; [2]) | B. signalgrass plant response rating (surinam grass; [1]) | Cocklebur plant response rating (cocklebur; [6]) | Velvetleaf plant response rating (velvetleaf; [6])
5: Plant response rating, Blackgrass (blackgrass; [5]) | Blackgrass plant response rating (blackgrass; [6]) | Soybean plant response rating (soybean; [6]) | Sugarbeets plant response rating (sugar beet; [3]) | Sugarbeets plant response rating (sugar beet; [4]) | Rape plant response rating (rape; [4]) | B. signalgrass plant response rating (0 to 10 scale) (surinam grass; [2]) | B. signalgrass plant response rating (surinam grass; [3]) | Bedstraw plant response rating (bedstraw; [4])
6: Wild oats plant response rating (wild oat; [4])
10: Crabgrass plant response rating (crabgrass; [3]) | Crabgrass plant response rating (crabgrass; [4])
0: Wild oats plant response rating (wild oat; [1]) | Wild oats plant response rating (0 to 10 scale) (wild oat; [2]) | Plant response rating, Wild oats (wild oat; [5]) | Wild oats plant response rating (wild oat; [6]) | Blackgrass plant response rating (blackgrass; [7]) | Blackgrass plant response rating (blackgrass; [1]) | Blackgrass plant response rating (0 to 10 scale) (blackgrass; [2]) | Blackgrass plant response rating (blackgrass; [8]) | Corn plant response rating (corn; [7]) | Corn plant response rating (corn; [1]) | Corn plant response rating (0 to 10 scale) (corn; [2]) | Corn plant response rating (corn; [3]) | Corn plant response rating (corn; [4]) | Corn plant response rating (corn; [8]) | Plant response rating, Corn (corn; [5]) | Corn plant response rating (corn; [6]) | Soybean plant response rating (soybean; [1]) | Soybean plant response rating (0 to 10 scale) (soybean; [2]) | Soybean plant response rating (soybean; [3]) | Soybean plant response rating (soybean; [4]) | Sugarbeets plant response rating (sugar beet; [7]) | Sugarbeets plant response rating (sugar beet; [1]) | Sugarbeets plant response rating (sugar beet; [8]) | Plant response rating, Sugarbeets (sugar beet; [5]) | Sugarbeets plant response rating (sugar beet; [6]) | Rape plant response rating (rape; [7]) | Rape plant response rating (rape; [1]) | Rape plant response rating (0 to 10 scale) (rape; [2]) | Rape plant response rating (rape; [3]) | Rape plant response rating (rape; [8]) | Plant response rating, Rape (rape; [5]) | Rape plant response rating (rape; [6]) | Crabgrass plant response rating (crabgrass; [8]) | B. signalgrass plant response rating (surinam grass; [7]) | B. signalgrass plant response rating (surinam grass; [8]) | Plant response rating, B. signalgrass (surinam grass; [5]) | B. signalgrass plant response rating (surinam grass; Rate 500 g/ha, Postemergence, scale 0 to 10, 0 no effect, 10 complete control) | Cocklebur plant response rating (cocklebur; [7]) | Cocklebur plant response rating (cocklebur; [1]) | Cocklebur plant response rating (0 to 10 scale) (cocklebur; [2]) | Cocklebur plant response rating (cocklebur; [3]) | Cocklebur plant response rating (cocklebur; [4]) | Cocklebur plant response rating (cocklebur; [8]) | Plant response rating, Cocklebur (cocklebur; [5]) | Nutsedge plant response rating (purple nutsedge; [7]) | Nutsedge plant response rating (purple nutsedge; [1]) | Nutsedge plant response rating (0 to 10 scale) (purple nutsedge; [2]) | Nutsedge plant response rating (purple nutsedge; [3]) | Nutsedge plant response rating (purple nutsedge; [4]) | Nutsedge plant response rating (purple nutsedge; [8]) | Plant response rating, Nutsedge (purple nutsedge; [5]) | Nutsedge plant response rating (purple nutsedge; [6]) | Bedstraw plant response rating (bedstraw; [7]) | Bedstraw plant response rating (bedstraw; [1]) | Bedstraw plant response rating (0 to 10 scale) (bedstraw; [2]) | Bedstraw plant response rating (bedstraw; [8]) | Velvetleaf plant response rating (velvetleaf; [1]) | Velvetleaf plant response rating (0 to 10 scale) (velvetleaf; [2]) | Velvetleaf plant response rating (velvetleaf; [3]) | Plant response rating, Velvetleaf (velvetleaf; [5]) | Wheat plant response rating (wheat; [1]) | Wheat plant response rating (0 to 10 scale) (wheat; [2]) | Wheat plant response rating (wheat; [3]) | Wheat plant response rating (wheat; [4]) | Plant response rating, Wheat (wheat; [5]) | Wheat plant response rating (wheat; [6])
